Some test systems named below: DMS-273; RXF 631; KM-20L2; XF498; DMS-114; HOP-18; LXFL 529; M19-MEL; DLD-1.
What all share (test): growth of human tumour cells (NCI), 48 h

The record followed here is ChEMBL document CHEMBL1201862, “PubChem BioAssay data set” (2004).

The structures appear in SMILES notation.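 Dose response: 5 concentrations. Exposure: 48 h. Format: 96-well plates. Endpoint: linear interpolation; highest concentration if not reached. GI50 = concentration required for 50% inhibition of growth.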 Active and inactive are the calls of the source. No stated cut-off is given here; in the data, active = GI50 up to about 1.1 µM and inactive = higher.

Take `Cc1cccc(C)c1N1C(=O)C(=O)C(c2nc3ccccc3s2)/C(=N/NC(=O)c2ccccc2O)C1=O` (stereo not drawn): the GI50 is 4.74 µM (inactive) with DMS-273; 24.5 µM (inactive) in the assay with RXF 631; 32.6 µM (inactive) in the assay on KM-20L2; 12.4 µM (inactive) in the assay with XF498; 11.6 µM (inactive) in the assay on DMS-114; 21.7 µM (inactive) in the assay with HOP-18. Moreover, the GI50 in the assay on LXFL 529 is 10.2 µM (inactive); in the assay on M19-MEL, 13.1 µM (inactive); in the assay on DLD-1, 22.8 µM (inactive).
Turning to `O=C1C=CC(=O)C12CCc1ccccc12`, the GI50 with DMS-273 is > 100 µM (inactive); in the assay with RXF 631 it was > 100 µM (inactive); with KM-20L2 it was > 100 µM (inactive); with XF498 it was > 100 µM (inactive); in the assay with DMS-114, > 100 µM (inactive); with HOP-18, > 33.2 µM (inactive). In addition, the GI50 was > 100 µM (inactive) with LXFL 529, > 100 µM (inactive) with M19-MEL and > 63.8 µM (inactive) with DLD-1.
For `COC(=O)/C(=N\Nc1nnc(C)n1N)C(C#N)c1ccccc1` (stereo not drawn), the GI50 with DMS-273 was > 100 µM (inactive); with RXF 631 it was 83.6 µM (inactive); with KM-20L2, > 100 µM (inactive); in the assay on XF498, > 100 µM (inactive); in the assay on DMS-114, 21.5 µM (inactive); with HOP-18, 7.05 µM (inactive). The GI50 in the assay on LXFL 529 is 64.9 µM (inactive); in the assay with M19-MEL, 18.5 µM (inactive); with DLD-1, 31.1 µM (inactive).
As to `C/C(=N/NS(=O)(=O)c1c(C)cc(C)cc1C)c1cccc[n+]1[O-]`, the GI50 with DMS-273, in the assay on KM-20L2, in the assay with XF498, in the assay with DMS-114, in the assay on HOP-18 and in the assay on LXFL 529 was > 100 µM (inactive) in each case. The GI50 with M19-MEL and in the assay with DLD-1 was > 100 µM (inactive) each time.
With `C[C@]12CCC(=O)C(O)=C1CCC2=O`, the GI50 in the assay with DMS-273, with KM-20L2, in the assay with HOP-18, in the assay with LXFL 529, in the assay on M19-MEL and in the assay with DLD-1 was > 100 µM (inactive) throughout.
Consider `CC1CCCC2(O1)OC1CC(=O)OC1C1=C2C(=O)c2ccccc2C1=O` (stereo not drawn), for which the GI50 was 1.8 µM (inactive) in the assay with DMS-273; 3.98 µM (inactive) in the assay on KM-20L2; 2.72 µM (inactive) in the assay with XF498; 1.75 µM (inactive) in the assay with DMS-114; 1.4 µM (inactive) in the assay on LXFL 529; 2.72 µM (inactive) in the assay with M19-MEL.
For the compound `O=C(O)C12CC3CC(CC(F)(C3)C1)C2`, the GI50 in the assay with DMS-273, in the assay with KM-20L2, with XF498, with DMS-114, in the assay with LXFL 529 and with M19-MEL was > 100 µM (inactive) each time. For the same compound, the GI50 with DLD-1 was > 100 µM (inactive).
As to `Clc1cccc(N2CCN(CCCN3CCc4c([nH]c5ccccc45)C3c3cccnc3)CC2)c1` (stereo not drawn), the GI50 was 5.98 µM (inactive) with DMS-273; 3.63 µM (inactive) with RXF 631; 4.28 µM (inactive) with KM-20L2; 4.58 µM (inactive) in the assay with XF498; 5.52 µM (inactive) in the assay with DMS-114; 14.3 µM (inactive) with HOP-18. In addition, the GI50 is 6.52 µM (inactive) with LXFL 529, 10.5 µM (inactive) in the assay on M19-MEL and 11.2 µM (inactive) in the assay with DLD-1.
As for `O=C1C(c2ccccc2)=C(c2ccccc2)C(c2ccccc2)/C1=C1\C(=O)C(c2ccccc2)=C(c2ccccc2)C1c1ccccc1` (stereo not drawn), the GI50 in the assay with DMS-273, in the assay with KM-20L2, with DMS-114, in the assay with HOP-18, in the assay on LXFL 529 and with M19-MEL was > 100 µM (inactive) each time. In the assay with DLD-1, the GI50 was > 100 µM (inactive).
On to `CCOC(=O)C1(Br)S(=O)(=O)OCCOS1(=O)=O`, for which the GI50 in the assay on DMS-273, in the assay on KM-20L2, in the assay with XF498, in the assay with DMS-114, in the assay with M19-MEL and in the assay on DLD-1 was > 100 µM (inactive) throughout.
Regarding `Clc1ccc(-c2c(C3=NCCCN3)nnn2-c2ccccc2)cc1`, the GI50 in the assay with DMS-273 is > 100 µM (inactive); in the assay with RXF 631 it was 75.3 µM (inactive); in the assay on KM-20L2, 33.9 µM (inactive); with XF498, > 100 µM (inactive); in the assay with DMS-114 it was 47.2 µM (inactive); in the assay on HOP-18, > 100 µM (inactive). Besides, the figures for the GI50 in the assay on LXFL 529, in the assay with M19-MEL and in the assay on DLD-1 were > 100 µM (inactive), 69.5 µM (inactive) and 75 µM (inactive), respectively.
In the case of `CCOC(=O)C1=C(Nc2ccc(Cl)cc2Cl)OCC1=O`, the GI50 in the assay on DMS-273, in the assay with RXF 631, in the assay with KM-20L2, in the assay with XF498, in the assay on LXFL 529 and in the assay with M19-MEL was > 100 µM (inactive) throughout. For the same compound, in the assay with DLD-1, the GI50 is > 100 µM (inactive).
With `CCOC(=N)CC(=O)Nc1cccc(C)c1C`, the GI50 with DMS-273, in the assay with RXF 631, in the assay on KM-20L2, with XF498, in the assay with LXFL 529 and with M19-MEL was > 100 µM (inactive) each time. In the assay with DLD-1, the GI50 was > 100 µM (inactive).
Regarding `CCCCCCCCCCCCCCCC(=O)N[C@H]1CCc2cc(OC)c(OC)c(OC)c2-c2ccc(SC)c(=O)cc21`, the GI50 in the assay on KM-20L2 is 0.186 µM (active); in the assay with XF498, 0.769 µM (active); in the assay on HOP-18, 0.933 µM (active); in the assay on LXFL 529, 0.486 µM (active); in the assay with M19-MEL, 0.458 µM (active); with DLD-1, 0.365 µM (active).
In the case of `C/N=c1/ss/c(=N\C(SC)=[N+](C)C)n1C.[O-][Cl+3]([O-])([O-])[O-]`, the GI50 with DMS-273 is > 100 µM (inactive); with RXF 631, 8.13 µM (inactive); in the assay with XF498 it was > 100 µM (inactive); with LXFL 529 it was > 100 µM (inactive).
Take `COc1ccccc1NC(=O)C1=C(C)NC(C)=C(C(=O)Nc2ccccc2OC)C1c1ccccc1Cl`: the GI50 was > 100 µM (inactive) with DMS-273; > 100 µM (inactive) in the assay with RXF 631; 56.5 µM (inactive) in the assay on KM-20L2; 37.7 µM (inactive) with XF498; 45.5 µM (inactive) in the assay with DMS-114; > 100 µM (inactive) in the assay on HOP-18. In addition, the GI50 in the assay on LXFL 529, in the assay on M19-MEL and in the assay with DLD-1 was > 100 µM (inactive) in each case.
Regarding `CC(=O)Nc1ccc(SC#N)c2c(NC(C)=O)cccc12`, the GI50 was > 100 µM (inactive) with DMS-273; > 82.8 µM (inactive) with RXF 631; > 100 µM (inactive) in the assay with KM-20L2; 43.1 µM (inactive) in the assay on DMS-114; 45.2 µM (inactive) in the assay on HOP-18; 28 µM (inactive) in the assay with LXFL 529. Further, the GI50 is > 100 µM (inactive) in the assay on M19-MEL and 71.6 µM (inactive) in the assay on DLD-1.
For `C/C=C/C(=O)[C@@H](O)C(C)C`, the GI50 in the assay on DMS-273, with KM-20L2, in the assay on LXFL 529 and in the assay on M19-MEL was > 100 µM (inactive) in each case.
For `CC(=O)OCCOCNC(=S)N/N=C/c1ccc([N+](=O)[O-])s1`, the GI50 was 28.1 µM (inactive) in the assay on DMS-273; 32.4 µM (inactive) with KM-20L2; > 100 µM (inactive) in the assay on XF498; 7.85 µM (inactive) in the assay with DMS-114; > 100 µM (inactive) in the assay on HOP-18; 73.3 µM (inactive) with LXFL 529. Further, the GI50 was 18.2 µM (inactive) with M19-MEL and 31.1 µM (inactive) in the assay with DLD-1.
`Cc1ccc(C(=O)N2c3ccccc3N(C)n3cccc3C2CC(=O)O)cc1` (stereo not drawn): the GI50 in the assay on DMS-273, in the assay on KM-20L2, in the assay with XF498, in the assay on DMS-114, in the assay on LXFL 529 and in the assay with M19-MEL was > 100 µM (inactive) throughout. Moreover, in the assay on DLD-1, the GI50 is > 100 µM (inactive).
`CCN(CC)CCCC(C)Nc1c2ccc(Cl)cc2nc2cc(Cl)ccc12` (stereo not drawn): the GI50 was 3.32 µM (inactive) with DMS-273; 3.42 µM (inactive) in the assay on KM-20L2; 4.99 µM (inactive) with XF498; 4.41 µM (inactive) in the assay on DMS-114; 5.42 µM (inactive) in the assay on HOP-18; 4.85 µM (inactive) with M19-MEL. The GI50 with DLD-1 was 2.94 µM (inactive).
As for `CCOC(=O)C1=C(O)C(=O)c2ccccc2C1=O`, the GI50 was > 100 µM (inactive) in the assay with DMS-273; > 100 µM (inactive) in the assay with XF498; > 100 µM (inactive) in the assay on DMS-114; > 100 µM (inactive) in the assay with HOP-18; 22.2 µM (inactive) in the assay with M19-MEL; > 100 µM (inactive) in the assay with DLD-1.
